Like-named read-outs stand apart in the source and are kept apart here.
Experiments:
human α2C‐adrenoceptor [1] = biological target: T1, human α2C‐adrenoceptor (Homo sapiens, UniProt P18825)
T1 sequence (P18825 1-462): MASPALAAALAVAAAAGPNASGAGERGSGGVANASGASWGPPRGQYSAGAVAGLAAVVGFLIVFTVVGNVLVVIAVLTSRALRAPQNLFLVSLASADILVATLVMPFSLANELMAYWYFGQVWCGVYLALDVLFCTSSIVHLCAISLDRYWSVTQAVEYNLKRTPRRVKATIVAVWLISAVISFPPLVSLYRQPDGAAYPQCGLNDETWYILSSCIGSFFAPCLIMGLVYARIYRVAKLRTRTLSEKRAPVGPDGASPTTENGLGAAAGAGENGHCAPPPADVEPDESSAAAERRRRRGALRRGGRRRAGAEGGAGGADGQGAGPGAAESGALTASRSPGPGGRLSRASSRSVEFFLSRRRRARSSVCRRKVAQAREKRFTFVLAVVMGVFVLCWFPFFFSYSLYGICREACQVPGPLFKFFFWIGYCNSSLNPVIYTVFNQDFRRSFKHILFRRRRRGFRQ

human α2C‐adrenoceptor [2] = biological target: T1, human α2C‐adrenoceptor; test: ERK1/2‐phosphorylation in CHO‐α2C cells; format: cell-based; set-up: expressed in transfected cells; host or cells: CHO-K1 with CRE-SPAP reporter
human α2C‐adrenoceptor [3] = biological target: T1, human α2C‐adrenoceptor; test: 3H‐rauwolscine whole cell binding in CHO‐α2C cells; set-up: expressed in transfected cells; host or cells: CHO-K1 with CRE-SPAP reporter
human α2A‐adrenoceptor [4] = biological target: T2, human α2A‐adrenoceptor (Homo sapiens, UniProt P08913); test: 3H‐rauwolscine whole cell binding in CHO‐α2A cells; set-up: expressed in transfected cells; host or cells: CHO-K1 with CRE-SPAP reporter
T2 sequence (P08913 1-465): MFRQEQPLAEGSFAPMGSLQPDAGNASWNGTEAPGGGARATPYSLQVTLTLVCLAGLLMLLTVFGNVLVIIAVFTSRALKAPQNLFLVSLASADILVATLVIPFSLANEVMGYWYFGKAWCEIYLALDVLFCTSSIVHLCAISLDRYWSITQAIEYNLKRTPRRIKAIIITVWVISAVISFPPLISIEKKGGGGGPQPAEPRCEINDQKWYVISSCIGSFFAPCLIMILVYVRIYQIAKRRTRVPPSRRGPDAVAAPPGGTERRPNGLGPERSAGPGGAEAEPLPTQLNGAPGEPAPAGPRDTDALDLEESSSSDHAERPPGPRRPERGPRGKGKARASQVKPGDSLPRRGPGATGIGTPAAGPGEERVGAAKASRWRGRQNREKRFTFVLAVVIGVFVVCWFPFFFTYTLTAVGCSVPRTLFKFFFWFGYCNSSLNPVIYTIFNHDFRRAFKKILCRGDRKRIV

human α2A‐adrenoceptor [5] = biological target: T2, human α2A‐adrenoceptor
human α2A‐adrenoceptor [6] = biological target: T2, human α2A‐adrenoceptor; test: ERK1/2‐phosphorylation in CHO‐α2A cells; format: cell-based; set-up: expressed in transfected cells; host or cells: CHO-K1 with CRE-SPAP reporter
[7] = test system: parent CHO cells (no transfected receptor); set-up: method as in PMID 34355529; details: non‐α‐mediated mechanism; cited from earlier work
[8] = CHO‐α2C cells, % inhibition from the 3 μM forskolin control, mean ± SEM
[9] = CHO‐α2C cells, CRE‐SPAP production in the absence of forskolin
[10] = CHO‐α2C cells, log KD from 3H‐rauwolscine binding versus CRE‐SPAP log IC50
[11] = Log IC50 (Gi), CRE‐SPAP (with forskolin), CHO‐α2C cells, inhibition of 3 μM forskolin‐stimulated CRE‐SPAP production, given as negative log IC50, mean ± SEM
[12] = CHO‐α2C cells, maximum response compared to 10 μM PDBu, mean ± SEM
[13] = CHO‐α2C cells, given as negative log EC50, mean ± SEM, read-out: Log EC50, ERK1/2‐phosphorylation (converted)
[14] = 3H‐rauwolscine whole cell binding, living cells, negative log KD, mean ± SEM, read-out: Log KD, CHO‐α2C (converted)
[15] = CHO‐α2C cells, 3H‐rauwolscine whole cell binding, given as negative log KD, mean only (SEM in Table 4), read-out: Log KD (converted)
[16] = fold, from KD values, 1 = no selectivity
[17] = 3H‐rauwolscine whole cell binding, living cells, negative log KD, mean ± SEM, read-out: Log KD, CHO‐α2A (converted)
[18] = CHO‐α2A, 3H‐rauwolscine whole cell binding, given as negative log KD, read-out: Log KD (binding) (converted)
[19] = CHO‐α2A (cell line 1), % inhibition from the 3 μM forskolin control, inhibition only
[20] = CHO‐α2A (cell line 1), absence of forskolin
[21] = CHO‐α2A, binding KD / Gi IC50 of CRE‐SPAP
[22] = Log IC50 (Gi), CRE‐SPAP (with forskolin), CHO‐α2A (cell line 1, 5830 fmol/mg protein), 3 μM forskolin
[23] = CHO‐α2A, maximum response compared to 10 μM PDBu
[24] = CHO‐α2A, read-out: Log EC50, ERK1/2‐phosphorylation (converted)

Row | SMILES | % inhibition, CRE‐SPAP (with forskolin) (human α2C‐adrenoceptor [1]; [8]) | Log EC50 (Gs), CRE‐SPAP (without forskolin) (human α2C‐adrenoceptor [1]; [9]) | Log efficacy ratio (KD/IC50) (human α2C‐adrenoceptor [1]; [10]) | IC50 (human α2C‐adrenoceptor [1]; [11]) | % 10 μM PDBu, ERK1/2‐phosphorylation (human α2C‐adrenoceptor [2]; [12]) | EC50 (human α2C‐adrenoceptor [2]; [13]) | Kd (human α2C‐adrenoceptor [3]; [14]) | Kd (human α2C‐adrenoceptor [3]; [15]) | Selectivity ratio α2B vs α2C (higher affinity for α2C) (human α2C‐adrenoceptor [3]; [16]) | Kd (human α2A‐adrenoceptor [4]; [17]) | Kd (human α2A‐adrenoceptor [4]; [18]) | Selectivity ratio α2A vs α2B (higher affinity for α2A) (human α2A‐adrenoceptor [4]; [16]) | Selectivity ratio α2A vs α2C (higher affinity for α2A) (human α2A‐adrenoceptor [4]; [16]) | % inhibition, CRE‐SPAP (with forskolin) (human α2C‐adrenoceptor [1]) | IC50 (human α2C‐adrenoceptor [1]) | Log EC50 (Gs), CRE‐SPAP (without forskolin) (human α2C‐adrenoceptor [1]) | Kd (human α2C‐adrenoceptor [3]) | Kd (human α2A‐adrenoceptor [4]) | IC50 (human α2A‐adrenoceptor [5]) | Log EC50 (Gs), CRE‐SPAP (without forskolin) (human α2A‐adrenoceptor [5]) | also measured
1 | C1COC(NC(C2CC2)C2CC2)=N1 [Rilmenidine] | 69.0 ± 7.9% | No response | 0.52 | 468 nM | 125.2 ± 15.6% | 49 nM | 1550 nM | 1550 nM | 2.6 | 1550 nM | 1550 nM | 2.6 | 1.0 |  |  |  |  |  |  |  | % inhibition, CRE‐SPAP (with forskolin) (human α2A‐adrenoceptor [5]; [19]): 94.2 ± 3.6%; Log EC50 (Gs), CRE‐SPAP (without forskolin) (human α2A‐adrenoceptor [5]; [20]): No response; Log efficacy ratio (KD/IC50) (human α2A‐adrenoceptor [5]; [21]): 0.96; IC50 (human α2A‐adrenoceptor [5]; [22]): 170 nM; % 10 μM PDBu, ERK1/2‐phosphorylation (human α2A‐adrenoceptor [6]; [23]): 144.0 ± 22.0%; EC50 (human α2A‐adrenoceptor [6]; [24]): 14.8 nM
2 | CNCC(O)c1ccc(O)cc1 (stereo not drawn) [Synephrine] |  |  |  |  |  |  |  |  |  |  |  |  |  | 88.1 ± 8.5% | 34700 nM | No response | 120000 nM | 89100 nM | 9550 nM | No response | % 10 μM PDBu, ERK1/2‐phosphorylation (human α2C‐adrenoceptor [2]): 112.8 ± 10.7%; EC50 (human α2C‐adrenoceptor [2]): 3240 nM; % inhibition, CRE‐SPAP (with forskolin) (human α2A‐adrenoceptor [5]): 75.6 ± 5.6%; % 10 μM PDBu, ERK1/2‐phosphorylation (human α2A‐adrenoceptor [6]): 114.5 ± 12.3%; EC50 (human α2A‐adrenoceptor [6]): 776 nM
3 | c1ccc2c(c1)CCCC2C1=NCCN1 (stereo not drawn) [Tetrahydrozoline] | 60.7 ± 3.2% | No response | 0.40 | 339 nM | 139.6 ± 19.8% | 126 nM | 851 nM | 851 nM | 6.6 | 324 nM | 324 nM | 17.4 | 2.6 |  |  |  |  |  |  |  | % inhibition, CRE‐SPAP (with forskolin) (human α2A‐adrenoceptor [5]; [19]): 69.3 ± 7.2%; Log EC50 (Gs), CRE‐SPAP (without forskolin) (human α2A‐adrenoceptor [5]; [20]): No response; Log efficacy ratio (KD/IC50) (human α2A‐adrenoceptor [5]; [21]): 1.18; IC50 (human α2A‐adrenoceptor [5]; [22]): 21.4 nM; % 10 μM PDBu, ERK1/2‐phosphorylation (human α2A‐adrenoceptor [6]; [23]): 123.0 ± 12.8%; EC50 (human α2A‐adrenoceptor [6]; [24]): 3.63 nM
4 | Cc1cccc(C)c1N=C1NCCCS1 [Xylazine] |  |  |  |  |  |  |  |  |  |  |  |  |  | 81.8 ± 3.6% | 178 nM | No response | 6030 nM | 11500 nM | 288 nM | No response | Log efficacy ratio (KD/IC50) (human α2C‐adrenoceptor [1]): 1.53; % 10 μM PDBu, ERK1/2‐phosphorylation (human α2C‐adrenoceptor [2]): 168.2 ± 22.8%; EC50 (human α2C‐adrenoceptor [2]): 72.4 nM; Selectivity ratio α2A vs α2C (higher affinity for α2C) (human α2C‐adrenoceptor [3]): 1.9; Selectivity ratio α2B vs α2C (higher affinity for α2C) (human α2C‐adrenoceptor [3]): 1.0; Kd (human α2C‐adrenoceptor [3]; Log KD, CHO‐α2C): 6030 nM; Kd (human α2A‐adrenoceptor [4]; Log KD, CHO‐α2A): 11500 nM; EC50 (human α2A‐adrenoceptor [5]): 8510 nM; Log efficacy ratio (KD/IC50) (human α2A‐adrenoceptor [5]): 1.60; % 10 μM PDBu, ERK1/2‐phosphorylation (human α2A‐adrenoceptor [6]): 128.3 ± 15.7%; EC50 (human α2A‐adrenoceptor [6]): 30.2 nM
5 | Cc1cc(C(C)(C)C)cc(C)c1CC1=NCCN1 [Xylometazoline] |  |  |  |  |  |  |  |  |  |  |  |  |  | 57.2 ± 3.9% | 63.1 nM | No response | 107 nM | 24 nM | 7.41 nM | No response | Log efficacy ratio (KD/IC50) (human α2C‐adrenoceptor [1]): 0.23; Selectivity ratio α2B vs α2C (higher affinity for α2C) (human α2C‐adrenoceptor [3]): 33.9; Kd (human α2C‐adrenoceptor [3]; Log KD, CHO‐α2C): 107 nM; Selectivity ratio α2A vs α2B (higher affinity for α2A) (human α2A‐adrenoceptor [4]): 151; Selectivity ratio α2A vs α2C (higher affinity for α2A) (human α2A‐adrenoceptor [4]): 4.5; Kd (human α2A‐adrenoceptor [4]; Log KD, CHO‐α2A): 24 nM; ERK1/2‐phosphorylation agonist response in parent cells [7]: stimulate ERK1/2‐phosphorylation agonist responses; % inhibition, CRE‐SPAP (with forskolin) (human α2A‐adrenoceptor [5]): 73.9 ± 4.6%; Log efficacy ratio (KD/IC50) (human α2A‐adrenoceptor [5]): 0.51
